Results published in paper PMC7153038, “Pharmacologic inhibition of RGD‐binding integrins ameliorates fibrosis and improves function following kidney injury” (Physiological Reports, 2020).
“And” between values parts separate entries of the source, which are not always exact repeats. Identical values can stand only once.

Tested on: kidney gene expression
Test: aristolochic acid kidney injury model, kidney RNA sequencing
Format: in vivo, mouse
Conditions: for Fold change of Pdgfra by RNA‐seq, AA + CWHM-12: vehicle 5.02; for Fold change of Pdgfrb by RNA‐seq, AA + CWHM-12: vehicle 6.79; for Fold change of Foxd1 by RNA‐seq, AA + CWHM-12: vehicle 9.55; for Fold change of Gli1 by RNA‐seq, AA + CWHM-12: vehicle 20.44; for Fold change of Crlf1 by RNA‐seq, AA + CWHM-12: vehicle 37.57
Protocol: Alzet osmotic minipumps (Cupertino, CA) were implanted subcutaneously in 8‐ to 10‐week‐old wild‐type male ICR outbred mice (Envigo) one day prior to induction of kidney injury to deliver vehicle (DMSO/H2O 1:1) or CWHM‐12 at a dose of 100 mg/kg per day. A single 5 mg/kg dose of aristolochic acid I sodium salt (Sigma‐Aldrich, A9451) in PBS was administered intraperitoneally to induce kidney injury, and mice were monitored daily for 27 days thereafter. Control (uninjured) mice were injected with an equal volume of PBS. Blood was obtained by maxillary vein puncture on days 0, 5 (peak injury), and 28 (study endpoint). For testing CWHM‐680, oral gavage (100 mg/kg per day) was started one day prior to injection of aristolochic acid I sodium salt and continued once daily until the study endpoint. Blood was obtained at days 0, 7, and 23 (study endpoint). […] Serum creatinine was measured by liquid chromatography–mass spectrometry (LC–MS/MS) at the University of Alabama O’Brien Center Bioanalytical Core. CWHM‐12 and CWHM‐680 concentrations were measured in plasma samples by liquid chromatography–tandem mass spectrometry (LC/MS/MS) using compound spiked into control plasma as a standard. All experiments were performed under protocols approved by the Institutional Animal Care and Use Committee at St. Louis University.
Total RNA was isolated from four kidneys from each of the three study groups using the RNeasy Plus Mini Kit (Qiagen). The groups were as follows: (a) aristolochic acid plus vehicle, (b) aristolochic acid plus CWHM‐12, and (c) PBS plus vehicle. After ribosomal depletion, we constructed barcoded sequencing libraries using the Ion Total RNA‐seq v2 kits (Life Technologies) according to the manufacturer's instructions. Sequencing was performed on an Ion Torrent Proton with mean read lengths of 85–110 nucleotides, and reads were aligned to the mouse mm10 genome using the TMAP aligner map4 algorithm. Soft clipping at both 5′ and 3′ ends of the reads was permitted during alignment to accommodate spliced reads, with a minimum seed length of 20 nucleotides. Genome‐wide strand‐specific nucleotide coverages were calculated from the aligned bam files for each sample using the “genomecoveragebed” program in BEDTools (Quinlan & Hall, 2010), and the nucleotide coverage for all nonredundant exons for each gene was summed using custom R scripts (http://www.Rproject.org). Normalization factors were calculated by averaging the total exon coverage for all replicates and dividing this average by the total exon coverage for each individual sample. The total coverage for each gene in each replicate was then multiplied by these factors after adding an offset of 1 to each gene to preclude division by 0 in subsequent calculations. The averages and p values of the coverage values for all genes in the individual groups were calculated using Microsoft Excel, using a two‐tailed t‐test. The expression values for each gene are the normalized strand‐specific total nucleotide coverage for each gene. The complete data set can be accessed at https://figshare.com/s/54c7f78b4523873e9b00.

[1] = AA-injured, 100 mg/kg/day s.c. minipump
[2] = AA-injured, 100 mg/kg/day s.c. minipump, relative to uninjured, 100 mg/kg/day
[3] = AA-injured, 100 mg/kg/day s.c. minipump, relative to uninjured, listed as CWHM−12, 100 mg/kg/day

CC(C)(C)c1cc(Br)cc([C@H](CC(=O)O)NC(=O)CNC(=O)c2cc(O)cc(NC3=NCC(O)CN3)c2)c1 (stereo partly shown) [CWHM‐12]
Acta2 RNA‐seq ratio AA + CWHM-12/AA + Vehicle [1]: 0.8473 | Aldh1a2 RNA‐seq ratio AA + CWHM-12/AA + Vehicle [1]: 0.6492 | Col1a1 RNA‐seq ratio AA + CWHM-12/AA + Vehicle [1]: 0.2480 | Col3a1 RNA‐seq ratio AA + CWHM-12/AA + Vehicle [1]: 0.3560 | Col5a3 RNA‐seq ratio AA + CWHM-12/AA + Vehicle [1]: 0.5587 | Crlf1 RNA‐seq ratio AA + CWHM-12/AA + Vehicle [1]: 0.1032 | Ctgf RNA‐seq ratio AA + CWHM-12/AA + Vehicle [1]: 0.5510 | Egf expression increase in injured animals, RNA-seq [1]: twofold | Fbln2 RNA‐seq ratio AA + CWHM-12/AA + Vehicle [1]: 0.5262 | Fn1 RNA‐seq ratio AA + CWHM-12/AA + Vehicle [1]: 0.5243 | Foxd1 RNA‐seq ratio AA + CWHM-12/AA + Vehicle [1]: 0.3427 | Gda RNA‐seq ratio AA + CWHM-12/AA + Vehicle [1]: 0.6302 | Gli1 RNA‐seq ratio AA + CWHM-12/AA + Vehicle [1]: 0.4486 | Gli2 RNA‐seq ratio AA + CWHM-12/AA + Vehicle [1]: 0.8986 | Gli3 RNA‐seq ratio AA + CWHM-12/AA + Vehicle [1]: 0.6039 | Mmp2 RNA‐seq ratio AA + CWHM-12/AA + Vehicle [1]: 0.4013 | NGAL (Lcn2) expression decrease vs vehicle-treated injured mice, RNA-seq [1]: 50% | Nes RNA‐seq ratio AA + CWHM-12/AA + Vehicle [1]: 0.4461 | Pdgfra RNA‐seq ratio AA + CWHM-12/AA + Vehicle [1]: 0.7298 | Pdgfrb RNA‐seq ratio AA + CWHM-12/AA + Vehicle [1]: 0.4393 | Rgs16 RNA‐seq ratio AA + CWHM-12/AA + Vehicle [1]: 0.4692 | Shroom3 RNA‐seq ratio AA + CWHM-12/AA + Vehicle [1]: 0.5633 | Tgfb1 RNA‐seq ratio AA + CWHM-12/AA + Vehicle [1]: 0.5715 | Tgfb2 RNA‐seq ratio AA + CWHM-12/AA + Vehicle [1]: 0.8306 | Tgfb3 RNA‐seq ratio AA + CWHM-12/AA + Vehicle [1]: 0.5937 | Thbs2 RNA‐seq ratio AA + CWHM-12/AA + Vehicle [1]: 0.5603 | Thbs4 RNA‐seq ratio AA + CWHM-12/AA + Vehicle [1]: 0.4558 | reduction of Myc expression, RNA-seq [1]: 35% | reduction of upregulation of eight keratin genes (Krt 7, 8, 15, 18–20, 23, 80), RNA-seq [1]: 15%–50% | decrease of Sox9 induction, RNA-seq (AA-injured, 100 mg/kg/day s.c. minipump, induction 45-fold with vehicle): 57% | Fold change of Gli2 by RNA‐seq, AA + CWHM-12 (AA-injured, 100 mg/kg/day s.c. minipump, relative to uninjured, vehicle 0.87): 0.78 fold | Fold change of Acta2 by RNA‐seq, AA + CWHM-12 (AA-injured, 100 mg/kg/day s.c. minipump, relative to uninjured, vehicle 3.7): 3.2 fold | Fold change of Shroom3 by RNA‐seq, AA + CWHM-12 (AA-injured, 100 mg/kg/day s.c. minipump, relative to uninjured, vehicle 3.9): 2.2 fold | Fold change of Tgfb2 by RNA‐seq, AA + CWHM-12 (AA-injured, 100 mg/kg/day s.c. minipump, relative to uninjured, vehicle 4.9): 4.1 fold | Fold change of Pdgfra by RNA‐seq, AA + CWHM-12 [2]: 3.7 fold | Fold change of Pdgfra by RNA‐seq, AA + CWHM-12 [3]: 3.66 fold | Fold change of Fbln2 by RNA‐seq, AA + CWHM-12 (AA-injured, 100 mg/kg/day s.c. minipump, relative to uninjured, vehicle 5.78): 3.04 fold | Fold change of Col5a3 by RNA‐seq, AA + CWHM-12 (AA-injured, 100 mg/kg/day s.c. minipump, relative to uninjured, vehicle 5.81): 3.25 fold | Fold change of Ctgf by RNA‐seq, AA + CWHM-12 (AA-injured, 100 mg/kg/day s.c. minipump, relative to uninjured, vehicle 6.4): 3.5 fold | Fold change of Pdgfrb by RNA‐seq, AA + CWHM-12 [2]: 3.0 fold | Fold change of Pdgfrb by RNA‐seq, AA + CWHM-12 [3]: 2.98 fold | Fold change of Tgfb1 by RNA‐seq, AA + CWHM-12 (AA-injured, 100 mg/kg/day s.c. minipump, relative to uninjured, vehicle 7.4): 4.2 fold | Fold change of Thbs2 by RNA‐seq, AA + CWHM-12 (AA-injured, 100 mg/kg/day s.c. minipump, relative to uninjured, vehicle 7.78): 4.36 fold | Fold change of Gda by RNA‐seq, AA + CWHM-12 (AA-injured, 100 mg/kg/day s.c. minipump, relative to uninjured, vehicle 8.17): 5.15 fold | Fold change of Tgfb3 by RNA‐seq, AA + CWHM-12 (AA-injured, 100 mg/kg/day s.c. minipump, relative to uninjured, vehicle 8.3): 4.9 fold | Fold change of Thbs4 by RNA‐seq, AA + CWHM-12 (AA-injured, 100 mg/kg/day s.c. minipump, relative to uninjured, vehicle 8.72): 3.97 fold | Fold change of Nes by RNA‐seq, AA + CWHM-12 (AA-injured, 100 mg/kg/day s.c. minipump, relative to uninjured, vehicle 8.77): 3.91 fold | Fold change of Foxd1 by RNA‐seq, AA + CWHM-12 [2]: 3.3 fold | Fold change of Foxd1 by RNA‐seq, AA + CWHM-12 [3]: 3.27 fold | Fold change of Fn1 by RNA‐seq, AA + CWHM-12 (AA-injured, 100 mg/kg/day s.c. minipump, relative to uninjured, vehicle 12.6): 6.6 fold | Fold change of Gli1 by RNA‐seq, AA + CWHM-12 [2]: 9.2 fold | Fold change of Gli1 by RNA‐seq, AA + CWHM-12 [3]: 9.17 fold | Fold change of Mmp2 by RNA‐seq, AA + CWHM-12 (AA-injured, 100 mg/kg/day s.c. minipump, relative to uninjured, vehicle 24.6): 9.9 fold | Fold change of Gli3 by RNA‐seq, AA + CWHM-12 (AA-injured, 100 mg/kg/day s.c. minipump, relative to uninjured, vehicle 24.87): 15.02 fold | Fold change of Col3a1 by RNA‐seq, AA + CWHM-12 (AA-injured, 100 mg/kg/day s.c. minipump, relative to uninjured, vehicle 28.0): 10.0 fold | Fold change of Aldh1a2 by RNA‐seq, AA + CWHM-12 (AA-injured, 100 mg/kg/day s.c. minipump, relative to uninjured, vehicle 32.44): 21.06 fold | Fold change of Crlf1 by RNA‐seq, AA + CWHM-12 [2]: 3.9 fold | Fold change of Crlf1 by RNA‐seq, AA + CWHM-12 [3]: 3.88 fold | Fold change of Col1a1 by RNA‐seq, AA + CWHM-12 (AA-injured, 100 mg/kg/day s.c. minipump, relative to uninjured, vehicle 42.1): 10.4 fold | Fold change of Rgs16 by RNA‐seq, AA + CWHM-12 (AA-injured, 100 mg/kg/day s.c. minipump, relative to uninjured, vehicle 55.80): 26.19 fold | Cdk1 expression level, fold higher, RNA-seq (AA-injured, 100 mg/kg/day s.c. minipump, vehicle 12-fold): 1.9 fold | Ccnb1 expression level, fold higher, RNA-seq (AA-injured, 100 mg/kg/day s.c. minipump, vehicle 23-fold): 1.4 fold | 0610005C13Rik RNA-seq normalized coverage, AA CWHM12.AVE (AA-injured, group average): 114105 | 0610007N19Rik RNA-seq normalized coverage, AA CWHM12.AVE (AA-injured, group average): 54308 | 0610007P14Rik RNA-seq normalized coverage, AA CWHM12.AVE (AA-injured, group average): 56128 | 0610008F07Rik RNA-seq normalized coverage, AA CWHM12.AVE (AA-injured, group average): 5309 | 0610009B14Rik RNA-seq normalized coverage, AA CWHM12.AVE (AA-injured, group average): 1314 | 0610005C13Rik RNA-seq normalized coverage, AA CWHM12 individual replicates (AA-injured, replicates 1-3): 95741 and 94900 and 151673 | 0610007N19Rik RNA-seq normalized coverage, AA CWHM12 individual replicates (AA-injured, replicates 1-3): 42985 and 46254 and 73685 | 0610007P14Rik RNA-seq normalized coverage, AA CWHM12 individual replicates (AA-injured, replicates 1-3): 42349 and 51087 and 74947 | 0610008F07Rik RNA-seq normalized coverage, AA CWHM12 individual replicates (AA-injured, replicates 1-3): 4229 and 2946 and 8751 | 0610009B14Rik RNA-seq normalized coverage, AA CWHM12 individual replicates (AA-injured, replicates 1-3): 1407 and 899 and 1635 | 0610005C13Rik AA CWHM12/AA Vehicle.RATIO (RNA-seq): 2.041 | 0610005C13Rik AA CWHM12/PBS Vehicle.RATIO (RNA-seq): 0.462 | 0610007N19Rik AA CWHM12/AA Vehicle.RATIO (RNA-seq): 1.380 | 0610007N19Rik AA CWHM12/PBS Vehicle.RATIO (RNA-seq): 1.337 | 0610007P14Rik AA CWHM12/AA Vehicle.RATIO (RNA-seq): 1.629 | 0610007P14Rik AA CWHM12/PBS Vehicle.RATIO (RNA-seq): 1.142 | 0610008F07Rik AA CWHM12/AA Vehicle.RATIO (RNA-seq): 4.723 | 0610008F07Rik AA CWHM12/PBS Vehicle.RATIO (RNA-seq): 0.373 | 0610009B14Rik AA CWHM12/AA Vehicle.RATIO (RNA-seq): 1.572 | 0610009B14Rik AA CWHM12/PBS Vehicle.RATIO (RNA-seq): 1.915
